Key:
[1] = test system: Glomerella lacenarium (Colletotrichum lacenarium); assay: Glomerella lacenarium (Colletotrichum lacenarium) liquid culture / cucumber / preventative (anthracnose); format: cell-based; details: 20 ppm in the applied formulation, liquid culture in PDB, 24° C., 3 to 4 days after application, read-out: disease control (inhibition of growth, photometric) compared to untreated control
Outline: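 At 20 ppm in the applied formulation, compounds were mixed with fungal spores in potato dextrose broth and held at 24° C. After 3–4 days, photometric growth measurement gave percent antifungal activity relative to untreated control.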

Uromyces viciae-Fabae = assay: Uromyces viciae-fabae / field bean / leaf disc preventative (faba-bean rust); format: in vivo; details: foliar, 288 h, 100 ppm in the applied formulation, field bean leaf discs, assessed 12 days after application, read-out: disease control compared to untreated control leaf discs
Protocol: Leaf disks or leaf segments of various plant species are cut from plants grown in a greenhouse. The cut leaf disks or segments are placed in multiwell plates (24-well format) onto water agar. The leaf disks are sprayed with a test solution before (preventative) or after (curative) inoculation. Compounds to be tested are prepared as DMSO solutions (max. 10 mg/mL) which are diluted to the appropriate concentration with 0.025% Tween20 just before spraying. The inoculated leaf disks or segments are incubated under defined conditions (temperature, relative humidity, light, etc.) according to the respective test system. A single evaluation of disease level is carried out 3 to 14 days after inoculation, depending on the pathosystem. Percent disease control relative to the untreated check leaf disks or segments is then calculated.
Example 5: Fungicidal Activity Against Uromyces viciae-Fabael Field Bean/Leaf Disc Preventative (Faba-Bean Rust)
Field bean leaf discs are placed on water agar in multiwell plates (96-well format) and 10 μL of the formulated test compound diluted in acetone and a spreader pipetted onto the leaf disc. Two hours after application leaf discs are inoculated by spraying a spore suspension on the lower leaf surface. The leaf discs are incubated in a climate cabinet at 22° C. with 18 hour days and 70% relative humidity. The activity of a compound is assessed as percent disease control compared to untreated when an appropriate level of disease damage appears in untreated check leaf disks (12 days after application).
The following compounds at 100 ppm in the applied formulation give at least 80% disease control in this test when compared to untreated control leaf discs under the same conditions, which show extensive disease development.

[2] = test system: Puccinia recondita f. Sp. Tritici; assay: Puccinia recondita f. sp. tritici / wheat / leaf disc preventative (brown rust); format: in vivo; details: foliar, 200 ppm in the applied formulation, wheat leaf segments, preventative, assessed 7 to 9 days after application, read-out: disease control compared to untreated control leaf disks
Outline: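 Wheat cv. Kanzler leaf segments on agar sprayed with formulated compound in water, inoculated with rust spores 1 day later. Incubated at 19° C, 75% rh, 12 h light/12 h dark; percent disease control versus untreated scored 7 to 9 days after application; tested at 200 ppm.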

Phakopsora pachyrhizi = Phakopsora pachyrhizi / soybean / leaf disc preventative (Asian soybean rust); format: in vivo; details: foliar, 200 ppm in the applied formulation, soybean leaf disks, assessed 12 to 14 days after application, read-out: disease control compared to untreated control leaf disks
Outline: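 Soybean leaf discs on water agar were sprayed with formulated compound diluted in water, then inoculated one day later with spore suspension on the lower leaf surface. Held 24-36 h dark at 20° C., 75% RH, then 12 h light/day; percent disease control versus untreated scored 12 to 14 days after application.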

[3] = test system: Puccinia recondita f. Sp. Tritici; assay: Puccinia recondita f. sp. tritici / wheat / leaf disc curative (brown rust); format: in vivo; details: foliar, 200 ppm in the applied formulation, wheat leaf segments, curative (applied 1 day after inoculation), assessed 6 to 8 days after application, read-out: disease control compared to untreated control leaf disks
Outline: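 Curative treatment: formulated compound in water was applied 1 day post-inoculation to spore-inoculated wheat cv. Kanzler segments held on agar. Segments stayed at 19° C and 75% relative humidity (12 h photoperiod after application), and disease control relative to untreated checks was assessed 6 to 8 days later.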

Structure (SMILES)	melting point [°C]	inhibition at 20 ppm [1] [%]	pest or weed control at 100 ppm (Uromyces viciae-Fabae) [%]	pest or weed control at 200 ppm [2] [%]	pest or weed control at 200 ppm (Phakopsora pachyrhizi) [%]	pest or weed control at 200 ppm [3] [%]
CON=C(C(=O)NCc1ccc(-c2noc(C(F)(F)F)n2)cc1)c1ccccc1 [Compound 2.2, 2-methoxyimino-2-phenyl-N-[[4-[5-(trifluoromethyl)-1,2,4-oxadiazol-3-yl]phenyl]methyl]acetamide]		≥ 80	≥ 80	≥ 80		
CO/N=C(/C(=O)Nc1ccc(-c2noc(C(F)(F)F)n2)cc1)c1ccccc1 [Compound 2.1, (2E)-2-methoxyimino-2-phenyl-N-[4-[5-(trifluoromethyl)-1,2,4-oxadiazol-3-yl]phenyl]acetamide]			≥ 80			
O=C(Nc1ccc(-c2noc(C(F)(F)F)n2)cc1)C(=O)c1ccccc1 [Compound 1.1, 2-oxo-2-phenyl-N-[4-[5-(trifluoromethyl)-1,2,4-oxadiazol-3-yl]phenyl]acetamide]			≥ 80			
CCOC(=O)C(=O)Nc1ccc(-c2noc(C(F)(F)F)n2)cc1 [Compound 2.3, ethyl 2-oxo-2-[4-[5-(trifluoromethyl)-1,2,4-oxadiazol-3-yl]anilino]acetate]	164 to 166		≥ 80	≥ 80		
O=C(O)C(=O)Nc1ccc(-c2noc(C(F)(F)F)n2)cc1 [Compound 3.1, 2-oxo-2-[4-[5-(trifluoromethyl)-1,2,4-oxadiazol-3-yl]anilino]acetic acid]	184 to 186		≥ 80			
O=C(Nc1ccc(-c2noc(C(F)(F)F)n2)cc1)C(=O)c1cccc(F)c1 [Compound 1.2, 2-(3-fluorophenyl)-2-oxo-N-[4-[5-(trifluoromethyl)-1,2,4-oxadiazol-3-yl]phenyl]acetamide]		≥ 80	≥ 80			
CCCON(Cc1ccc(-c2noc(C(F)(F)F)n2)cc1)C(=O)C(N)=O [Compound 4.11, N′-propoxy-N′-[[4-[5-(trifluoromethyl)-1,2,4-oxadiazol-3-yl]phenyl]methyl] oxamide]		≥ 80	≥ 80	≥ 80		
CC(=O)C(=O)NCc1ccc(-c2noc(C(F)(F)F)n2)cc1 [Compound 1.35, 2-oxo-N-[[4-[5-(trifluoromethyl)-1,2,4-oxadiazol-3-yl]phenyl]methyl]propanamide]	75.8 to 77.5	≥ 80		≥ 80	≥ 80	≥ 80

Now from value to molecule, other results behind:

melting point [°C]	Structure (SMILES)	inhibition at 20 ppm [1] [%]	pest or weed control at 100 ppm (Uromyces viciae-Fabae) [%]	pest or weed control at 200 ppm [2] [%]	pest or weed control at 200 ppm (Phakopsora pachyrhizi) [%]	pest or weed control at 200 ppm [3] [%]
209 to 212	O=C(NCC1CC1)C(=O)Nc1ccc(-c2noc(C(F)(F)F)n2)cc1 [Compound 4.3, N-(cyclopropylmethyl)-N′-[4-[5-(trifluoromethyl)-1,2,4-oxadiazol-3-yl]phenyl]oxamide]		≥ 80		≥ 80	
232 to 234	CN(C)NC(=O)C(=O)Nc1ccc(-c2noc(C(F)(F)F)n2)cc1 [Compound 4.8, 2-(2,2-dimethylhydrazino)-2-oxo-N-[4-[5-(trifluoromethyl)-1,2,4-oxadiazol-3-yl]phenyl]acetamide]		≥ 80		≥ 80	
238 to 241	O=C(Nc1ccc(-c2noc(C(F)(F)F)n2)cc1)C(=O)NC1CC1 [Compound 4.6, N′-cyclopropyl-N-[4-[5-(trifluoromethyl)-1,2,4-oxadiazol-3-yl]phenyl]oxamide]		≥ 80		≥ 80	
212 to 214	C#CCNC(=O)C(=O)Nc1ccc(-c2noc(C(F)(F)F)n2)cc1 [Compound 4.5, N-prop-2-ynyl-N′-[4-[5-(trifluoromethyl)-1,2,4-oxadiazol-3-yl]phenyl]oxamide]		≥ 80		≥ 80	

From US20180370927A1, “MICROBIOCIDAL OXADIAZOLE DERIVATIVES” (SYNGENTA PARTICIPATIONS AG, priority 2015, published 2018)
